# Measured values: PubChem BioAssay (NCI)
# Values joined by “and” are separate entries in the source; they are usually repeats but may differ in a detail not shown here. Equal entries are not always repeated.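 Assay format: 96-well plates, 48-hour exposure. GI50 marks 50% less growth. TGI: total growth inhibition.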 Where a SMILES comes first, the peptide text is derived from it. [ ]: non-standard residue; d: D form. Ac5c = NC1(C(=O)O)CCCC1
# Test system: NCI/ADR-RES ovarian
# Assay: NCI anticancer screen, dose series, 48 h
Structure (SMILES),GI50 [µM],TGI [µM]
CCN1CCN(C(=O)[C@]23CC[C@@H](C)[C@H](C)[C@@H]2C2=CC[C@@H]4[C@@]5(C)C/C(=C/c6ccncc6)C(=O)C(C)(C)[C@@H]5CC[C@@]4(C)[C@]2(C)CC3)CC1,1.7,3.69
Cc1cc(C)c([O-])c(CN(C)CCN(C)Cc2cc(C)cc(C)c2[O-])c1.O=C([O-])c1cccc(C(=O)[O-])n1.[Ti+4],2.71,> 100
NC1(C(=O)NC2(C(=O)O)CCCC2)CCCC1 (H-[Ac5c]-[Ac5c]-OH),–,> 100
CCOC(=O)C(Cc1c[nH]c2ccc(N)cc12)(NC(C)=O)C(=O)OCC,> 1000,> 1000
CN1CCN(CCCN)CC1,–,> 100
CC(=O)Nc1ccc(C(=O)NN2C(=O)C(Cl)C2c2ccc(Cl)cc2)cc1 (stereo not given),–,> 100
Nc1ccc(N(S(=O)(=O)c2ccccc2)S(=O)(=O)c2ccccc2)c(Cl)c1,–,> 100
CC(O)c1cccc(NCc2c3ccccc3c(=O)n3c2oc2ccccc23)c1 (stereo not given),11.8,28.5
O=c1c2c(nc3n1CCS3)[nH]c1ccccc12,> 100,> 100
CSc1nc(C)c2c(n1)SCC2,–,> 10
CC1=C2[C@@H](CC1)[C@]1(C)O[C@@](C3CCCCC3)(C[C@H]1OC(=O)CO)[C@H]2OC(=O)/C=C/c1ccccc1,0.186,11.6
O=C(O[C@H]1CN[C@H](C#Cc2cc3ncnc(Nc4ccc5c(ccn5Cc5cc(F)ccc5F)c4)c3s2)C1)N1CCOCC1,3.7,> 23.2
O=c1c(Oc2ccc(F)cc2F)cc2cnc(NC3CCOCC3)nc2n1C1CCS(=O)(=O)CC1,> 25,> 25
C=CCC(N[C@H](CO)c1ccccc1)c1ccc2ccccc2n1 (stereo not given in full),> 100,> 100
COC(=O)c1cc2c(cc1Cl)SC(N(N(C)C)S(=O)(=O)c1ccc(Br)s1)=NS2(=O)=O,23.7,59.9

# Test system: RPMI-8226 leukemia
# Assay: NCI anticancer screen, dose series, 48 h
Structure (SMILES),GI50 [µM],TGI
COc1cc2c(cc1OCCCOc1cc3c(cc1OC)C(=O)N1C[C@H](F)C[C@H]1C=N3)N=C[C@@H]1C[C@@H](F)CN1C2=O,2.01,5.79 µM
CO[C@@H]1/C=C\C=C(/C)C(=O)NC2=CC(=O)C(NCCN(C)C)=C(C[C@@H](C)C[C@@H](OC)[C@@H](O)[C@H](C)/C=C(\C)[C@H]1OC(N)=O)C2=O,–,19.6 µM and 6.32 µM
COc1ccc(CN(C)c2ccc(CO)c(Cl)c2)cc1,9.71,> 65.4 µM
O=C1Nc2ccc(C(=O)c3ccco3)cc2/C1=C/c1cc(Cl)c(O)c(Cl)c1,4.02,12.5 µM
O=c1ccn(C2OC(CO)C(O)C2F)c(=O)[nH]1 (stereo not given),> 1000,> 1000 µM
CC(=O)[O-].CC(=O)[O-].[Pt+2].c1cscn1.c1cscn1,57.7,> 100 µM
Cn1c([N+](=O)[O-])cnc1/C=C1\Oc2ccccc2C1=O,1.27,5.31 µM
COc1cc(OC)cc(C2CC(=O)Nc3c2c(C)nn3-c2nc3ccccc3[nH]2)c1 (stereo not given),2.64,6.29 µM
CCN(CC)CCCC(C)Nc1c2ccc(Cl)cc2nc2ccc(OC)cc12 (stereo not given),–,5.74 µM and 5.11 µM
COc1ccc([N+](=O)[O-])c2c(NCCCN(C)C)c3ccccc3nc12,–,2.17 µM
CCN1CCN(C(=O)[C@]23CC[C@@H](C)[C@H](C)[C@@H]2C2=CC[C@@H]4[C@@]5(C)C/C(=C/c6ccncc6)C(=O)C(C)(C)[C@@H]5CC[C@@]4(C)[C@]2(C)CC3)CC1,1.88,5.91 µM
Cc1cc(C)c([O-])c(CN(C)CCN(C)Cc2cc(C)cc(C)c2[O-])c1.O=C([O-])c1cccc(C(=O)[O-])n1.[Ti+4],1.37,5.17 µM
NC1(C(=O)NC2(C(=O)O)CCCC2)CCCC1 (H-[Ac5c]-[Ac5c]-OH),–,> 100 µM
CN1CCN(CCCN)CC1,–,> 100 µM
CC(=O)Nc1ccc(C(=O)NN2C(=O)C(Cl)C2c2ccc(Cl)cc2)cc1 (stereo not given),–,> 100 µM
Nc1ccc(N(S(=O)(=O)c2ccccc2)S(=O)(=O)c2ccccc2)c(Cl)c1,–,> 100 µM
CC(O)c1cccc(NCc2c3ccccc3c(=O)n3c2oc2ccccc23)c1 (stereo not given),65,> 100 µM
O=c1c2c(nc3n1CCS3)[nH]c1ccccc12,> 100,> 100 µM
CSc1nc(C)c2c(n1)SCC2,–,> 10 µM
